Assay results reported in ChEMBL document CHEMBL4393695, “Thiazole orange - Spermine conjugate: A potent human telomerase inhibitor comparable to BRACO-19” (Eur J Med Chem, 2019).
Calls of active or inactive are those of the source. The rule behind the calls is not given here.

Tests used:
dsDNA = assay: Binding affinity to 17 mer duplex D1 DNA (unknown origin) assessed as equilibrium dissociation constant at 0.5 uM incubated for 30 mins under dark condition by fluorometric titration analysis; assay type: nucleic-acid assay
[1] = target: Telomerase reverse transcriptase (Homo sapiens) (UniProt O14746); assay: Inhibition of telomerase activity in human HeLa cell lysate at 6.25 uM in presence of [32P]-labeled template primer by TRAP assay; assay type: subcellular
Quadruplex DNA [2] = assay: Binding affinity to G-quadruplex G1 DNA (unknown origin) assessed as melting temperature at compound to DNA ratio of 4:1 in presence of 100 mM K+ by circular dichroism thermal denaturation analysis (Rvb= 52.6 degC); assay type: nucleic-acid assay
HeLa [3] = assay: Inhibition of DNA polymerase activity in human HeLa cell lysate at 0.625 to 10 uM in presence of [32P]-labeled template primer by TRAP assay; assay type: subcellular
[4] = Ratio of Kd for human G-quadruplex G1 DNA to Kd for 17 mer duplex D1 DNA (unknown origin) by flourimetric titration analysis
[5] = target: Telomerase reverse transcriptase (Homo sapiens) (UniProt O14746); assay: Inhibition of telomerase activity in human HeLa cell lysate in presence of [32P]-labeled template primer by TRAP assay; assay type: subcellular
Quadruplex DNA [6] = assay: Binding affinity to human G-quadruplex G1 DNA assessed as equilibrium dissociation constant at 0.5 uM incubated for 30 mins under dark condition by fluorometric titration analysis; assay type: nucleic-acid assay
HeLa [7] = assay: Inhibition of DNA polymerase activity in human HeLa cell lysate at 6.25 uM in presence of [32P]-labeled template primer by TRAP assay; assay type: subcellular
Quadruplex DNA [8] = assay: Binding affinity to human G-quadruplex G1 DNA assessed as increase in fluorescence at 0.5 uM incubated for 30 mins in dark by fluorescence titration analysis relative to control; assay type: nucleic-acid assay
Quadruplex DNA [9] = assay: Binding affinity to G-quadruplex G2 DNA (unknown origin) assessed as increase in deltaTm at compound to DNA ratio of 10:1 by fluorescence thermal denaturation analysis; assay type: nucleic-acid assay
Quadruplex DNA [10] = assay: Binding affinity to G-quadruplex G1 DNA (unknown origin) assessed as melting temperature at compound to DNA ratio of 4:1 in presence of 150 mM Na+ by circular dichroism thermal denaturation analysis (reference value: 57.4 degC); assay type: nucleic-acid assay
HeLa [11] = conditions: Homo sapiens, Lysate, 10 to 100 uM
Description: Inhibition of DNA polymerase activity in human HeLa cell lysate at 10 to 100 uM in presence of [32P]-labeled template primer by TRAP assay

[12] = target: Telomerase reverse transcriptase (Homo sapiens) (UniProt O14746); conditions: HeLa, Lysate, 10 to 100 uM
Description: Inhibition of telomerase activity in human HeLa cell lysate at 10 to 100 uM in presence of [32P]-labeled template primer by TRAP assay

[13] = target: Telomerase reverse transcriptase (Homo sapiens) (UniProt O14746); assay: Inhibition of telomerase activity in human HeLa cell lysate at 10 uM in presence of [32P]-labeled template primer by TRAP assay; assay type: subcellular
[14] = target: Telomerase reverse transcriptase (Homo sapiens) (UniProt O14746); assay: Inhibition of telomerase activity in human HeLa cell lysate at 0.625 uM in presence of [32P]-labeled template primer by TRAP assay; assay type: subcellular
[15] = target: Telomerase reverse transcriptase (Homo sapiens) (UniProt O14746); assay: Inhibition of telomerase activity in human HeLa cell lysate at <10 uM in presence of [32P]-labeled template primer by TRAP assay; assay type: subcellular
HeLa [16] = assay: Inhibition of DNA polymerase activity in human HeLa cell lysate at <10 uM in presence of [32P]-labeled template primer by TRAP assay; assay type: subcellular
[17] = target: Telomerase reverse transcriptase (Homo sapiens) (UniProt O14746); conditions: HeLa, Lysate, 50 uM
Description: Inhibition of telomerase activity in human HeLa cell lysate at 50 uM in presence of [32P]-labeled template primer by TRAP assay

Quadruplex DNA [18] = assay: Ratio of thiazole orange Kd to compound Kd for human G-quadruplex G1 DNA at 0.5 uM incubated for 30 mins in dark by fluorimetric titration analysis; assay type: nucleic-acid assay
HeLa [19] = assay: Inhibition of DNA polymerase activity in human HeLa cell lysate at 6.25 uM in presence of [32P]-labeled template primer by TRAP assay relative to control; assay type: subcellular
[20] = target: Telomerase reverse transcriptase (Homo sapiens) (UniProt O14746); assay: Inhibition of telomerase activity in human HeLa cell lysate at 0.156 to 2.5 uM in presence of [32P]-labeled template primer by TRAP assay; assay type: subcellular
HeLa [21] = assay: Inhibition of DNA polymerase activity in human HeLa cell lysate at 10 uM in presence of [32P]-labeled template primer by TRAP assay; assay type: subcellular
[22] = target: Telomerase reverse transcriptase (Homo sapiens) (UniProt O14746); assay: Inhibition of telomerase activity in human HeLa cell lysate at 5 uM in presence of [32P]-labeled template primer by TRAP assay; assay type: subcellular
[23] = target: Telomerase reverse transcriptase (Homo sapiens) (UniProt O14746); assay: Inhibition of telomerase activity in human HeLa cell lysate at 0.078 uM in presence of [32P]-labeled template primer by TRAP assay; assay type: subcellular
Quadruplex DNA [24] = assay: Binding affinity to G-quadruplex G2 DNA (unknown origin) assessed as change in melting temperature at compound to DNA ratio of 7:1 by fluorescence thermal denaturation analysis; assay type: nucleic-acid assay
[25] = target: Telomerase reverse transcriptase (Homo sapiens) (UniProt O14746); assay: Inhibition of telomerase activity in human HeLa cell lysate at 6.25 uM in presence of [32P]-labeled template primer by TRAP assay relative to control; assay type: subcellular
HeLa [26] = assay: Inhibition of DNA polymerase activity in human HeLa cell lysate at 0.156 to 2.5 uM in presence of [32P]-labeled template primer by TRAP assay; assay type: subcellular
HeLa [27] = assay: Inhibition of DNA polymerase activity in human HeLa cell lysate at 5 uM in presence of [32P]-labeled template primer by TRAP assay; assay type: subcellular
HeLa [28] = assay: Inhibition of DNA polymerase activity in human HeLa cell lysate at 50 uM in presence of [32P]-labeled template primer by TRAP assay; assay type: subcellular
[29] = target: Telomerase reverse transcriptase (Homo sapiens) (UniProt O14746); assay: Inhibition of telomerase activity in human HeLa cell lysate at 0.039 to 10 uM in presence of [32P]-labeled template primer by TRAP assay; assay type: subcellular
HeLa [30] = assay: Inhibition of DNA polymerase activity in human HeLa cell lysate at <=2.5 uM in presence of [32P]-labeled template primer by TRAP assay; assay type: subcellular
[31] = target: Telomerase reverse transcriptase (Homo sapiens) (UniProt O14746); assay: Inhibition of telomerase activity in human HeLa cell lysate at <=2.5 uM in presence of [32P]-labeled template primer by TRAP assay; assay type: subcellular

Sequence of Telomerase reverse transcriptase (Homo sapiens) (O14746 whole entry): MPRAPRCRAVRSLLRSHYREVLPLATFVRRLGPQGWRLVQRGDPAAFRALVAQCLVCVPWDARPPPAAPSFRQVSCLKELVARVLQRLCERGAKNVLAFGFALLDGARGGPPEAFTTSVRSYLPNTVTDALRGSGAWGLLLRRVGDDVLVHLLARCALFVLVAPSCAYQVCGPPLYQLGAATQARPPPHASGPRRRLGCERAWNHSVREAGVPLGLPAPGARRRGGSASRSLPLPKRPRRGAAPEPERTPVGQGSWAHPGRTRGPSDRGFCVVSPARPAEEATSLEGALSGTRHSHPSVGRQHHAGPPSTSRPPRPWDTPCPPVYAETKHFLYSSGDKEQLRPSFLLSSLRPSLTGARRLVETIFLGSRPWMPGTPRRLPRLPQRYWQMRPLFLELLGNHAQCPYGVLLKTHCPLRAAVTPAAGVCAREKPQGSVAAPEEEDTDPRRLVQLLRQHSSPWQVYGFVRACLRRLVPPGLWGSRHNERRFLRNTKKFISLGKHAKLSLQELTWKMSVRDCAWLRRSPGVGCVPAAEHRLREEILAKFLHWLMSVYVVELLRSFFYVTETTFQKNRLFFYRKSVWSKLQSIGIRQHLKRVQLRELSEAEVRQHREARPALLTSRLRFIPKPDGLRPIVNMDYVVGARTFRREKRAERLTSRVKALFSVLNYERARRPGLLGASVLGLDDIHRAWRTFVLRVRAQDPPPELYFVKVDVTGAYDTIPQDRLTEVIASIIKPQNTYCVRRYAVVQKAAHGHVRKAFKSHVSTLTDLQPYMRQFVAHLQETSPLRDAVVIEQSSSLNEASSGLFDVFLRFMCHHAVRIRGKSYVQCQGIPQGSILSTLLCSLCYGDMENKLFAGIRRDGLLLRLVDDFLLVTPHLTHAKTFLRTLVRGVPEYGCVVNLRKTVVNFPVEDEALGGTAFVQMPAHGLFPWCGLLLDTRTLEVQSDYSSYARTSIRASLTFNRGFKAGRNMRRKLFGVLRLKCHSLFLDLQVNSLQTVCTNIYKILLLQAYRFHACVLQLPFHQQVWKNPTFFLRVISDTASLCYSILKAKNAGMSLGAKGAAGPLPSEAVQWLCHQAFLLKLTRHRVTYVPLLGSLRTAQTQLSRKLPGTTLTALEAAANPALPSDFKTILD

Row | inhibition [1] | Tm (Quadruplex DNA [2]) | Ratio [4] | inhibition (HeLa [7]) | fold change (FC) (Quadruplex DNA [8]) | Activity (Quadruplex DNA [9]) | Tm (Quadruplex DNA [10]) | SMILES | other results
1 | Active | 64 °C | 4.18 | inactive | 200 | Active | 56 °C | C[n+]1c(/C=C2\C=CN(CC(=O)NCCN3CCCCC3)c3ccccc32)sc2ccccc21 | Kd (dsDNA): 270 nM; inhibition (HeLa [3]): inactive; EC [5]: 5 µM; Kd (Quadruplex DNA [6]): 1130 nM
2 | inactive | 59.2 °C | – | inactive | – | Active | 57.5 °C | C[n+]1c(/C=C2\C=CN(CC(=O)NCCN)c3ccccc32)sc2ccccc21 | –
3 | – | – | – | – | – | – | – | NCCCNCCCCNCCCN | inhibition (HeLa [11]): inactive; inhibition [12]: inactive
4 | – | – | – | – | – | – | – | O=C1c2ccc3c4ccc5c6c(ccc(c7ccc(c2c37)C(=O)N1CCN1CCCCC1)c64)C(=O)N(CCN1CCCCC1)C5=O | inhibition [13]: inactive
5 | Active | 62.4 °C | – | inactive | – | Active | 58.5 °C | C[n+]1c(/C=C2\C=CN(CC(=O)NCCNCCNCCN)c3ccccc32)sc2ccccc21 | inhibition [13]: Active; inhibition [14]: inactive; inhibition [15]: Active; inhibition (HeLa [16]): inactive
6 | – | – | – | – | – | – | – | C/C(=C\C(=O)Nc1ccccc1C(=O)O)c1ccc2ccccc2c1 | inhibition [17]: Active
7 | inactive | 60.2 °C | – | inactive | – | Active | 56.5 °C | C[n+]1c(/C=C2\C=CN(CC(=O)NCCCN)c3ccccc32)sc2ccccc21 | –
8 | Active | 59.7 °C | 2.7 | inactive | 200 | Active | 60.5 °C | C[n+]1c(/C=C2\C=CN(CC(=O)NCCOCCN3CCCC3)c3ccccc32)sc2ccccc21 | Kd (dsDNA): 610 nM; Kd (Quadruplex DNA [6]): 1650 nM
9 | – | 71 °C | 2.33 | – | 200 | – | 65 °C | C[n+]1c(/C=C2\C=CN(CC(=O)NCCCNCCCCNCCCN)c3ccccc32)sc2ccccc21 | KdH (dsDNA): 0.03 µM; KdL (dsDNA): 0.65 µM; inhibition [13]: 100%; Ratio (Quadruplex DNA [18]): 12.4; inhibition (HeLa [19]): 100%; inhibition [20]: Active; inhibition (HeLa [21]): 100%; inhibition [22]: 100%; inhibition [23]: inactive; KdH (Quadruplex DNA [6]): 0.07 µM; KdL (Quadruplex DNA [6]): 1.73 µM; ΔTm (Quadruplex DNA [24]): 6.9 °C; inhibition [25]: 100%; inhibition (HeLa [26]): inactive; inhibition (HeLa [27]): Active
10 | Active | 64.9 °C | 3.57 | inactive | 200 | Active | 60.5 °C | C[n+]1c(/C=C2\C=CN(CC(=O)NCCOCCN3CCCCC3)c3ccccc32)sc2ccccc21 | Kd (dsDNA): 710 nM; Kd (Quadruplex DNA [6]): 2180 nM
11 | Active | 69.4 °C | 0.79 | inactive | 200 | – | 62.5 °C | C[n+]1c(/C=C2\C=CN(CC(=O)NCCN3CCCC3)c3ccccc32)sc2ccccc21 | Kd (dsDNA): 380 nM; inhibition (HeLa [3]): inactive; EC [5]: 2.5 µM; KdH (Quadruplex DNA [6]): 0.3 µM; KdL (Quadruplex DNA [6]): 1.77 µM; ΔTm (Quadruplex DNA [24]): 7.1 °C
12 | – | – | – | – | – | – | – | C[n+]1ccc(-c2c3nc(c(-c4cc[n+](C)cc4)c4ccc([nH]4)c(-c4cc[n+](C)cc4)c4ccc([nH]4)c(-c4cc[n+](C)cc4)c4nc2C=C4)C=C3)cc1 | inhibition [17]: Active; inhibition (HeLa [28]): Active
13 | – | – | – | – | – | – | – | CN1C=C/C(=C\c2sc3ccccc3[n+]2C)c2ccccc21 | Kd (dsDNA): 400 nM; Kd (Quadruplex DNA [6]): 870 nM
14 | inactive | 54 °C | – | inactive | – | – | 57.1 °C | C[n+]1c(/C=C2\C=CN(CC(=O)O)c3ccccc32)sc2ccccc21 | –
15 | – | – | – | – | – | – | – | CN(C)c1ccc(Nc2c3ccc(NC(=O)CCN4CCCC4)cc3nc3cc(NC(=O)CCN4CCCC4)ccc23)cc1 | inhibition [13]: Active; inhibition [29]: Active; inhibition (HeLa [21]): Active; inhibition (HeLa [30]): inactive; inhibition [31]: Active
16 | Active | 63.4 °C | 2.18 | – | 340 | – | 60 °C | CN1/C(=C/c2cc[n+](C)c3ccccc23)Sc2ccccc21 | –
17 | Active | 62.3 °C | – | inactive | – | Active | 60 °C | C[n+]1c(/C=C2\C=CN(CC(=O)NCCCCCCN)c3ccccc32)sc2ccccc21 | –
18 | inactive | 59.4 °C | – | inactive | – | Active | 57 °C | C[n+]1c(/C=C2\C=CN(CC(=O)NCCOCCOCCOCCN)c3ccccc32)sc2ccccc21 | –
19 | inactive | 58.7 °C | – | inactive | – | Active | 56 °C | C[n+]1c(/C=C2\C=CN(CC(=O)NCCOCCN)c3ccccc32)sc2ccccc21 | –
20 | Active | 60.5 °C | 2.8 | inactive | 200 | Active | 61.5 °C | C[n+]1c(/C=C2\C=CN(CC(=O)NCCCNCCCN)c3ccccc32)sc2ccccc21 | KdH (dsDNA): 0.05 µM; KdL (dsDNA): 0.92 µM; inhibition [13]: Active; inhibition [14]: Active; inhibition [15]: Active; inhibition (HeLa [21]): Active; inhibition (HeLa [16]): inactive; KdH (Quadruplex DNA [6]): 0.14 µM; KdL (Quadruplex DNA [6]): 0.95 µM
